Source: ChEMBL document CHEMBL5260845, “Flavone-based arylamides as potential anticancers: Design, synthesis and in vitro cell-based/cell-free evaluations” (2020)
Activity calls are given as the source filed them. The rule behind the calls is not given here.

Columns and labels:
SF-295 [1] = assay: Antiproliferative activity against human SF-295 cells assessed as cell growth inhibition at 10 uM by SRB assay relative to control; assay type: functional
SNB-75 = assay: Antiproliferative activity against human SNB-75 cells assessed as cell growth inhibition at 10 uM by SRB assay relative to control; assay type: functional
SK-MEL-28 = assay: Antiproliferative activity against human SK-MEL-28 cells assessed as cell growth inhibition at 10 uM by SRB assay relative to control; assay type: functional
SK-MEL-5 = assay: Antiproliferative activity against human SK-MEL-5 cells assessed as cell growth inhibition at 10 uM by SRB assay relative to control; assay type: functional
Malme-3M = assay: Antiproliferative activity against human Malme-3M cells assessed as cell growth inhibition at 10 uM by SRB assay relative to control; assay type: functional
CCRF-CEM = assay: Antiproliferative activity against human CCRF-CEM cells assessed as cell growth inhibition at 10 uM by SRB assay; assay type: functional, cell-based
HL-60 = assay: Antiproliferative activity against human HL-60 cells assessed as cell growth inhibition at 10 uM by SRB assay; assay type: functional, cell-based
K562 = assay: Antiproliferative activity against human K562 cells assessed as cell growth inhibition at 10 uM by SRB assay; assay type: functional, cell-based
MOLT-4 = assay: Antiproliferative activity against human MOLT-4 cells assessed as cell growth inhibition at 10 uM by SRB assay; assay type: functional, cell-based
RPMI-8226 = assay: Antiproliferative activity against human RPMI-8226 cells assessed as cell growth inhibition at 10 uM by SRB assay; assay type: functional, cell-based
SR = assay: Antiproliferative activity against human SR cells assessed as cell growth inhibition at 10 uM by SRB assay; assay type: functional, cell-based
A549 = assay: Antiproliferative activity against human A549 cells assessed as cell growth inhibition at 10 uM by SRB assay; assay type: functional, cell-based
EKVX = assay: Antiproliferative activity against human EKVX cells assessed as cell growth inhibition at 10 uM by SRB assay; assay type: functional
HOP-62 = assay: Antiproliferative activity against human HOP-62 cells assessed as cell growth inhibition at 10 uM by SRB assay; assay type: functional, cell-based
HOP-92 = assay: Antiproliferative activity against human HOP-92 cells assessed as cell growth inhibition at 10 uM by SRB assay; assay type: functional, cell-based
NCI-H226 = assay: Antiproliferative activity against human NCI-H226 cells assessed as cell growth inhibition at 10 uM by SRB assay; assay type: functional
NCI-H23 = assay: Antiproliferative activity against human NCI-H23 cells assessed as cell growth inhibition at 10 uM by SRB assay; assay type: functional
NCI-H322M = assay: Antiproliferative activity against human NCI-H322M cells assessed as cell growth inhibition at 10 uM by SRB assay; assay type: functional, cell-based
NCI-H460 = assay: Antiproliferative activity against human NCI-H460 cells assessed as cell growth inhibition at 10 uM by SRB assay; assay type: functional, cell-based
NCI-H522 = assay: Antiproliferative activity against human NCI-H522 cells assessed as cell growth inhibition at 10 uM by SRB assay; assay type: functional, cell-based
HCT-116 = assay: Antiproliferative activity against human HCT-116 cells assessed as cell growth inhibition at 10 uM by SRB assay relative to control; assay type: functional
SF-268 = assay: Antiproliferative activity against human SF-268 cells assessed as cell growth inhibition at 10 uM by SRB assay relative to control; assay type: functional
U-251 = assay: Antiproliferative activity against human U-251 cells assessed as cell growth inhibition at 10 uM by SRB assay relative to control; assay type: functional
SF-539 = assay: Antiproliferative activity against human SF-539 cells assessed as cell growth inhibition at 10 uM by SRB assay relative to control; assay type: functional
SNB-19 = assay: Antiproliferative activity against human SNB-19 cells assessed as cell growth inhibition at 10 uM by SRB assay relative to control; assay type: functional
SF-295 [2] = assay: Antiproliferative activity against human SF-295 cells assessed as cell growth inhibition at 10 uM by SRB assay; assay type: functional, cell-based
SK-MEL-2 = assay: Antiproliferative activity against human SK-MEL-2 cells assessed as cell growth inhibition at 10 uM by SRB assay relative to control; assay type: functional
UACC-257 = assay: Antiproliferative activity against human UACC-257 cells assessed as cell growth inhibition at 10 uM by SRB assay relative to control; assay type: functional
UACC-62 = assay: Antiproliferative activity against human UACC-62 cells assessed as cell growth inhibition at 10 uM by SRB assay relative to control; assay type: functional
M14 = assay: Antiproliferative activity against human M14 cells assessed as cell growth inhibition at 10 uM by SRB assay relative to control; assay type: functional
LOX IMVI = assay: Antiproliferative activity against human LOX IMVI cells assessed as cell growth inhibition at 10 uM by SRB assay relative to control; assay type: functional
MDA-MB-435 = assay: Antiproliferative activity against human MDA-MB-435 cells assessed as cell growth inhibition at 10 uM by SRB assay relative to control; assay type: functional
OVCAR-4 = assay: Antiproliferative activity against human OVCAR-4 cells assessed as cell growth inhibition at 10 uM by SRB assay relative to control; assay type: functional
OVCAR-8 = assay: Antiproliferative activity against human OVCAR-8 cells assessed as cell growth inhibition at 10 uM by SRB assay relative to control; assay type: functional
OVCAR-3 = assay: Antiproliferative activity against human OVCAR-3 cells assessed as cell growth inhibition at 10 uM by SRB assay relative to control; assay type: functional; conditions: pooled result: one value given for 2 cell lines, strains, targets or settings
IGROV-1 = assay: Antiproliferative activity against human IGROV-1 cells assessed as cell growth inhibition at 10 uM by SRB assay relative to control; assay type: functional
786-0 = assay: Antiproliferative activity against human 786-0 cells assessed as inhibition of cell growth at 10 uM by SRB assay relative to control; assay type: functional
ACHN = assay: Antiproliferative activity against human ACHN cells assessed as inhibition of cell growth at 10 uM by SRB assay relative to control; assay type: functional; conditions: pooled result: one value given for 2 cell lines, strains, targets or settings
RXF 393 = assay: Antiproliferative activity against human RXF 393 cells assessed as inhibition of cell growth at 10 uM by SRB assay relative to control; assay type: functional
SN12C = assay: Antiproliferative activity against human SN12C cells assessed as inhibition of cell growth at 10 uM by SRB assay relative to control; assay type: functional
A498 = assay: Antiproliferative activity against human A498 cells assessed as inhibition of cell growth at 10 uM by SRB assay relative to control; assay type: functional
DU-145 = assay: Antiproliferative activity against human DU-145 cells assessed as inhibition of cell growth at 10 uM by SRB assay relative to control; assay type: functional
MDA-MB-231 = assay: Antiproliferative activity against human MDA-MB-231 cells assessed as inhibition of cell growth at 10 uM by SRB assay relative to control; assay type: functional
Hs-578T = assay: Antiproliferative activity against human Hs-578T cells assessed as inhibition of cell growth at 10 uM by SRB assay relative to control; assay type: functional
MCF7 = assay: Antiproliferative activity against estrogen receptor positive human MCF7 cells assessed as inhibition of cell growth at 10 uM by SRB assay relative to control; assay type: functional
T47D = assay: Antiproliferative activity against human T47D cells assessed as inhibition of cell growth at 10 uM by SRB assay relative to control; assay type: functional
BT-549 = assay: Antiproliferative activity against triple negative human BT-549 cells assessed as inhibition of cell growth at 10 uM by SRB assay relative to control; assay type: functional

`COc1cc2oc(-c3cccc(NC(=O)c4ccc(Br)cc4)c3)cc(=O)c2c(OC)c1OC` showed an inhibition at 10 µM (SF-295 [1]) of over 50%, an inhibition at 10 µM (SNB-75) of over 50% and an inhibition at 10 µM (SK-MEL-28) of 50.8%. For the same compound, the inhibition at 10 µM (SK-MEL-5) was 50.8%, the inhibition at 10 µM (Malme-3M) was 39.1% and the inhibition (CCRF-CEM) was “Active”. For the same compound, the inhibition (HL-60) was “Active”, the inhibition (K562) was “Active” and the inhibition (MOLT-4) was “Active”. The inhibition (RPMI-8226) was “Active”, the inhibition (SR) was “Active” and the inhibition (A549) was “Active”. For the same compound, the inhibition (EKVX) was “Active”, the inhibition at 10 µM (EKVX) was under 50% and the inhibition (HOP-62) was “Active”. For the same compound, the inhibition (HOP-92) was “Active”, the inhibition (NCI-H226) was “Active” and the inhibition at 10 µM (NCI-H226) was under 50%. For the same compound, the inhibition (NCI-H23) was “Active”, the inhibition at 10 µM (NCI-H23) was under 50% and the inhibition (NCI-H322M) was “Active”. For the same compound, the inhibition (NCI-H460) was “Active”, the inhibition (NCI-H522) was “Active” and the inhibition at 10 µM (HCT-116) was 84%. The inhibition at 10 µM (SF-268) was over 50%, the inhibition at 10 µM (U-251) was over 50% and the inhibition at 10 µM (SF-539) was 47.1%. The inhibition at 10 µM (SNB-19) was 41.2%, the inhibition (SF-295 [2]) was “Active” and the inhibition at 10 µM (SK-MEL-2; Homo sapiens, SK-MEL-2, dose 10 µM) was at most 46%. The “inhibition (INH)” value (SK-MEL-2; dose 10 µM) was 39.07%, the inhibition at 10 µM (UACC-257) was 39.1% and the inhibition at 10 µM (UACC-62) was 39.1%. The inhibition at 10 µM (M14) was 50.8%, the inhibition at 10 µM (LOX IMVI) was 50.8% and the inhibition at 10 µM (MDA-MB-435) was 50.8%. The inhibition at 10 µM (OVCAR-4) was 52.9%, the inhibition at 10 µM (OVCAR-8) was 52.9% and the inhibition at 10 µM (OVCAR-3) was 52.9%. For the same compound, the inhibition at 10 µM (IGROV-1) was 52.9%, the inhibition at 10 µM (786-0) was 84% and the inhibition at 10 µM (ACHN) was 63.6%. For the same compound, the inhibition at 10 µM (RXF 393) was 63.6%, the inhibition at 10 µM (SN12C) was 63.6% and the inhibition at 10 µM (A498) was 63.6%. For the same compound, the inhibition at 10 µM (DU-145) was over 50%, the inhibition at 10 µM (MDA-MB-231) was 73.4% and the inhibition at 10 µM (Hs-578T) was 73.4%.
Work on `CN(Cc1cnc2nc(N)nc(N)c2n1)c1ccc(C(=O)N[C@@H](CCC(=O)O)C(=O)O)cc1` [METHOTREXATE] yielded an inhibition at 10 µM (MCF7) of 82.8%, an inhibition at 10 µM (T47D) of 53.8% and an inhibition at 10 µM (BT-549) of 53.1%. The inhibition at 10 µM (MDA-MB-231) was 40.1%.
